Experiments:
rabbit GnRHr = rabbit GnRHr (Oryctolagus cuniculus, UniProt Q5U7L3); assay: Rabbit GnRHr inhibitory activity assay, rabbit GnRHr/CHO stably transfected cell lines; type: cell-based; details: rabbit GnRHr/CHO cells, GnRH polypeptide stimulant, Fluo-4
Method: Test Example 3. Rabbit GnRHr Inhibitory Activity Assay of the Present Compounds
This assay was used to determine the inhibition effect of the present compounds on the activity of rabbit GnRHr protein expressed by rabbit GnRHr/CHO stably transfected cell lines.
A mammalian expression vector containing the rabbit GnRHr gene was transferred into CHO cells by adding Lipofectamine® LTX reagent containing Plus™. Antibiotics were added the next day for screening to pick out the monoclonal cell lines.
The rabbit GnRHr/CHO stably transfected cell lines were inoculated in 96-well plates with an inoculation density of 25,000 cells/well. The culture medium was removed the next day, and loading buffer containing Fluo-4 dye was added to the plate (100 μL/well) and incubated for 30 minutes at 37° C. The plate was moved to room temperature and equilibrated for 10 minutes. Each compound was diluted with DMSO to seven concentration gradients of 100 μM, 10 μM, 1 μM, 0.1 μM, 0.01 μM, 0.001 μM, 0.0001 μM. Then, 1 μl of each gradient was added to each well and incubated for 10 minutes at room temperature. After automated addition of 50 μL of GnRH polypeptide stimulant solution, the value was immediately detected at 494/516n M by a microplate reader (flexstation 3). IC50 values of the compounds were calculated by software from different fluorescence signals at various corresponding concentrations.
The inhibitory activity of the present compounds on rabbit GnRHr was determined by the above assay, and IC50 values are shown in Table 1.

[1] = Rabbit pharmacokinetics assay; type: in vivo, New Zealand rabbits; details: for AUC: read-out: Area under curve AUC; for half-life: read-out: Half-life T1/2 (converted); for MRT: read-out: Residence time MRT
Method: Test Example 5. Rabbit Pharmacokinetics Assay of Example 11 of the Present Invention
Rabbits were used as test animals. The plasma concentrations at various times were determined by LC/MS/MS after intragastric administration of the compound of Example 11, and intravenous administration of the compound of Example 11 to rabbits. The pharmacokinetic behavior of the present compound in rabbits was studied, and the pharmacokinetic features were evaluated.
Six (6) healthy New Zealand Rabbits (female) were evenly designated into 2 groups. The animals were purchased from Jie Sijie Corp. Ltd.
An appropriate amount of sample was weighed, and added with 0.5% CMC-Na to form […] suspension upon ultrasonic treatment.
Appropriate amounts of drugs were weighed, and dissolved with 1 ml DMSO and 1 ml of Tween 80. Saline solution was added to the final volume.
Six (6) healthy New Zealand rabbits (female) were evenly designated into 2 groups, and administered by oral gavage or intravenous injection (i.v.) (oral gavage at a dosage of 30 mg/kg with an administration volume of 5 ml/kg, and i.v. at a dosage of 5 mg/kg with an administration volume of 2 ml/kg) after fasting overnight.
0.2 ml of blood was sampled before and 5 minutes, 0.25, 0.5, 1, 2, 4, 8, 11, 24 hours after intravenous administration, collected in a heparinized test tube, and centrifuged at 3500 rpm for 10 minutes to separate the plasma, which was stored at −20° C. Blood was sampled before, and 0.5, 1, 2, 4, 6, 8, 11, and 24 hours after oral administration, and treated the same as that of the intravenous administration group. The content of the test compound in the plasma of rabbits after administration of the compound by oral gavage and intravenous injection was determined by LC/MS/MS.

[2] = Beagle pharmacokinetics assay; type: in vivo, beagles; details: for AUC: read-out: Area under curve AUC; for half-life: read-out: Half-life T1/2 (converted); for MRT: read-out: Residence time MRT
Method: Test Example 6. Beagle Pharmacokinetics Assay of Example 11 of the Present Invention
Beagles were used as test animals. The plasma concentrations at various times were determined by LC/MS/MS after intragastric administration of the compound of Example 11, and intravenous administration of the compound of Example 11 to beagles. The pharmacokinetic behavior of the present compound in beagles was studied, and the pharmacokinetic features were evaluated.
Eight (8) healthy beagles (half female and half male) were evenly designated into 2 groups. The animals were purchased from SuzhouXishan Zhongke Laboratory Animal Corp. Ltd.
An appropriate amount of sample was weighed, and added with 0.5% CMC-Na to form a 1.0 mg/ml suspension upon ultrasonic treatment;
Appropriate amounts of drugs were weighed, and dissolved with 5 ml DMSO and 5 ml of Tween 80. Saline solution was added to the final volume.
Eight (8) healthy beagles (half female and half male) were evenly designated into 2 groups, and administered by oral gavage or intravenous injection (i.v.) (oral gavage at a dosage of 5 mg/kg with an administration volume of 5 ml/kg, and i.v. at a dosage of 2 mg/kg with an administration volume of 2 ml/kg) after fasting overnight.
1.0 ml of blood was sampled from the foreleg vein before, and 0.25, 0.5, 1, 2, 4, 6, 8, 12, and 24 hours after oral administration, collected in a heparinized test tube, and centrifuged at 3500 rpm for 10 minutes to separate the plasma, which was stored at −20° C. The animals were allowed access to feed 2 hours after administration. Blood was sampled before, and 5 minutes, 0.25, 0.5, 1, 2, 4, 6, 8, 12, and 24 hours after intravenous administration, and treated the same as above. The content of the test compound in the plasma of beagles after administration of the compound by oral gavage and intravenous injection was determined by LC/MS/MS.

[3] = In vivo pharmacodynamics test in rabbit endometriosis model; details: female, New Zealand, rabbit, in vivo, po
Method: (§1) Fifteen (15) healthy New Zealand rabbits (female) were evenly designated into 3 groups.
(§2) Rabbits were adaptive fed and quarantined for seven days, and subcutaneously injected with 30 μg/kg of estradiol benzoate once daily for two days before surgery. When the model was established, rabbits were anesthetized with 3% sodium pentobarbital, and laparotomized sterilely. Then, one side of the uterus was separated and ligated with the uterine mesorectum vessel. Then, a section of the uterus was cut off and put into a warm saline dish, and then dissected longitudinally and the myometrium and endometrium were separated. A section of endometrium (about 0.5 cm by0.5 cm) was seamed to the abdominal wall rich in blood vessels with the intimal surface facing toward the abdominal cavity. Three weeks after endometrium planting, the rabbits were laparotomized to check graft intimal size. […] Each group was administered by oral gavage once a day in a volume of 5 ml/kg, continuously for 28 days after successful modeling. Ultimately, the rabbit was weighed and the volume of ectopic endometrium was measured to evaluate the effect of the present compound on the endometrial activity.

[4] = test system: rabbit endometriosis model; assay: as above
Method: as §1, §2

[5] = female, New Zealand, plasma, intravenous injection 5 mg/kg
[6] = female, New Zealand, plasma, oral 30 mg/kg
[7] = both sexes, dog, plasma, iv, i.v. 2 mg/kg
[8] = both sexes, dog, plasma, oral 5 mg/kg

rabbit GnRHr, sequence (Q5U7L3 1-328): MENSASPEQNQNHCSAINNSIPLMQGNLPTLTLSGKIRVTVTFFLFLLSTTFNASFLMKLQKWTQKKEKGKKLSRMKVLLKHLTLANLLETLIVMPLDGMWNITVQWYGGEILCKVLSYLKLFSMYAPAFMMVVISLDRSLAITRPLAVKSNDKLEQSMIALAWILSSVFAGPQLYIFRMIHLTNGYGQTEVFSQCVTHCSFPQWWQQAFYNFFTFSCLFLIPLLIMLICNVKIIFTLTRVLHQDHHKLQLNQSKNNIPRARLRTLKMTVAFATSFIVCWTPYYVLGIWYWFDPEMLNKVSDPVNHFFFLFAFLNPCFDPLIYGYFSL

Structure (SMILES): CONC(=O)Nc1ccc(-n2nc3c(c2CN(C)C)c(=O)n(-c2ccc(OC)nn2)c(=O)n3Cc2c(F)cccc2F)cc1 [Example 11, 1-(4-(7-(2,6-difluorobenzyl)-3-((dimethylamino)methyl)-5-(6-methoxypyridazin-3-yl)-4,6-dioxo-4,5,6,7-tetrahydro-2H-pyrazolo[3,4-d]pyrimidin-2-yl)phenyl)-3-methoxyurea]
- IC50 (rabbit GnRHr): 0.57 nM
- AUC [1, 5]: 3410 ± 832 ng·h/mL
- half-life [1, 5]: 276 ± 162 min
- MRT [1, 5]: 2.39 ± 0.3 h
- Vd/F ([1]; female, New Zealand, plasma, oral 30 mg/kg, read-out: Apparent volume of distribution Vz/F): 10.7 ± 3.86 L/kg
- AUC [1, 6]: 19000 ± 2310 ng·h/mL
- CL/F ([1]; female, New Zealand, plasma, oral 30 mg/kg, read-out: Clearance rate CL/F): 26.6 ± 3.4 mL/min/kg
- half-life [1, 6]: 274 ± 63.6 min
- Cmax ([1]; female, New Zealand, plasma, oral 30 mg/kg, read-out: Plasma concentration Cmax): 5040 ± 776 ng/mL
- MRT [1, 6]: 3.94 ± 0.55 h
- Apparent volume of distribution Vz/F ([1]; intravenous injection 5 mg/kg): 10948 ± 7749 mL/kg
- Clearance rate CL/F ([1]; intravenous injection 5 mg/kg): 25.3 ± 5.5 mL/min/kg
- AUC [2, 7]: 2300 ± 213 ng·h/mL
- half-life [2, 7]: 200 ± 24 min
- MRT [2, 7]: 4.02 ± 0.5 h
- Vd/F ([2]; both sexes, dog, plasma, oral 5 mg/kg, read-out: Apparent volume of distribution Vz/F): 7.25 ± 4.37 L/kg
- AUC [2, 8]: 5940 ± 1340 ng·h/mL
- CL/F ([2]; both sexes, dog, plasma, oral 5 mg/kg, read-out: Clearance rate CL/F): 14.7 ± 4.2 mL/min/kg
- half-life [2, 8]: 322 ± 91.2 min
- Cmax ([2]; both sexes, dog, plasma, oral 5 mg/kg, read-out: Plasma concentration Cmax): 1090 ± 350 ng/mL
- MRT [2, 8]: 6.4 ± 2.82 h
- Apparent volume of distribution Vz/F ([2]; i.v. 2 mg/kg): 4235 ± 706 mL/kg
- Clearance rate CL/F ([2]; i.v. 2 mg/kg): 14.6 ± 1.3 mL/min/kg
- NOAEL at 28 days [3]: 30 mg/kg
- inhibition for the ectopic endometrial volume ([4]; 10 mg/kg oral once a day for 4 weeks): not obvious
- growth of ectopic endometrium ([4]; 30 mg/kg oral once a day for 4 weeks, vs 0.5% CMC-Na control): significantly inhibited

Source: US10344034B2, “Pyrazolopyrimidone or Pyrrolotriazone derivatives, method of preparing same, and pharmaceutical applications thereof” (Shanghai Hengrui Pharmaceutical Co., Ltd., priority 2013, dated 2019)
